Measured values: patent US11970474B2, “Substituted benzodiazoles and use thereof in therapy” (THOMAS HELLEDAYS STIFTELSE FÖR MEDICINSK FORSKNING, priority 2018, dated 2024)
pEC50: −log10 of the molar value.

How the values were obtained:
Test in all cases: Cell viability assay (resazurin)
Type in all cases: cell-based
786-0 = conditions: Homo sapiens, 120 h, Cancer, Renal Cell Adenocarcinoma, five day incubation
Description: (§1) A dilution series of compound or vehicle are transferred to 96-well plates. Cells are seeded into the plate (500-10,000 cells/well) in suitable media and incubated for five days in 5% CO2 at 37° C. Thereafter, resazurin (diluted in suitable medium or PBS) are added to a final concentration 10 μg/ml resazurin at 37° C. for 2-4 hours before measuring the fluorescence (Ex544/Em590), essentially as described (Riss, Terry L. et al., “Cell Viability Assays.” In Assay Guidance Manual, ed. G. Sitta Sittampalam, et al. Bethesda (Md.): Eli Lilly & Company and the National Center for Advancing Translational Sciences (2004) http://www.ncbi.nlm.nih.gov/books/NBK144065/).
(§2) The compounds to be tested are nano-dispensed in duplicate in 11 concentrations, directly in 384-well cell plates, with a final DMSO concentration<1%. Cells are seeded in cell plates, pre-dispensed with compounds (200-2500 cells/well in 50 μl). After three or five days culture in 5% CO2, 37° C., resazurin diluted in PBS is added, 10 μl/well, to a final concentration of 10 μg/ml and cells are incubated 2-4 hours before measuring fluorescence (Ex544/Em590), as described (ibid.). Results obtained for selected example compounds described herein on cancer- and non-transformed cell lines are provided in the table below (Table 3) and summarized in FIG. 1. Where indicated, combination indexes was measured with CompuSyn software (www.compusyn.com) by the method of Chou-Talalay (Chou, Ting-Chao., Cancer Research, 70(2), 440-46 (2010)).

A498 = conditions: Homo sapiens, 120 h, Cancer, Renal carcinoma, five day incubation
Description: as §1, §2

A549 = conditions: Homo sapiens, 120 h, Cancer, Lung carcinoma, five day incubation
Description: as §1, §2

ACHN = conditions: Homo sapiens, 120 h, Cancer, Renal Cell Adenocarcinoma, five day incubation
Description: as §1, §2

BJ Ras = conditions: 120 h, Cancer, Transformed fibroblast, five day incubation
Description: as §1, §2

BJ Tert = conditions: 120 h, Normal, immortalized fibroblast, five day incubation
Description: as §1, §2

CCD841 = conditions: CCD-841, 120 h, Normal, fetal epithelial colon, five day incubation
Description: as §1, §2

CCRF-CEM = conditions: Homo sapiens, 120 h, Cancer, Acute Lymphoblastic Leukemia, five day incubation
Description: as §1, §2

DU145 = conditions: Homo sapiens, DU-145, 120 h, Cancer, Prostate carcinoma, five day incubation
Description: as §1, §2

H460 = conditions: Homo sapiens, NCI-H460, 120 h, Cancer, large cell lung carcinoma, five day incubation
Description: as §1, §2

HCT116 = conditions: Homo sapiens, HCT-116, 120 h, Cancer, Colorectal Carcinoma, five day incubation
Description: as §1, §2

HL-60 = conditions: Homo sapiens, 120 h, Cancer, Acute Promyelocytic Leukemia, five day incubation
Description: as §1, §2

HT-29 = conditions: Homo sapiens, 120 h, Cancer, Colorectal Adenocarcinoma, five day incubation
Description: as §1, §2

Jurkat = conditions: Homo sapiens, 120 h, Cancer, Acute lymphoblastic leukemia, five day incubation
Description: as §1, §2

KG1a = conditions: Homo sapiens, KG-1a, 120 h, Cancer, Acute Myelogenous Leukemia, five day incubation
Description: as §1, §2

LCL#2 = conditions: 120 h, Normal, Epstein-Barr-virus-transformed lymphoblastoid cell lines, five day incubation
Description: as §1, §2

M059J = conditions: Homo sapiens, 120 h, Cancer, Malignant Glioblastoma, five day incubation
Description: as §1, §2

M059K = conditions: 120 h, Cancer, Malignant Glioblastoma, five day incubation
Description: as §1, §2

MOLT4 = conditions: Homo sapiens, MOLT-4, 120 h, Cancer, Acute Lymphoblastic Leukemia, five day incubation
Description: as §1, §2

MV4-11 = conditions: Homo sapiens, 120 h, Cancer, acute monocytic leukemia, five day incubation
Description: as §1, §2

PC3 = conditions: Homo sapiens, PC-3, 120 h, Cancer, Prostate adenocarcinoma, five day incubation
Description: as §1, §2

PL-21 = conditions: 120 h, Cancer, acute myeloid leukemia, five day incubation
Description: as §1, §2

RFX393 = conditions: 120 h, Cancer, Renal cancer cell lines, five day incubation
Description: as §1, §2

Raji = conditions: Homo sapiens, 120 h, Cancer, Burkitt's Lymphoma, five day incubation
Description: as §1, §2

Rec1 = conditions: Homo sapiens, 120 h, Cancer, Mantle Cell Lymphoma, five day incubation
Description: as §1, §2

Reh = conditions: Homo sapiens, 120 h, Cancer, Acute Lymphocytic Leukemia, five day incubation
Description: as §1, §2

SaOS2 = conditions: Homo sapiens, SAOS-2, 120 h, Cancer, Osteosarcoma, five day incubation
Description: as §1, §2

T98G = conditions: Homo sapiens, 120 h, Cancer, Glioblastoma Multiforme, five day incubation
Description: as §1, §2

U2OS = conditions: Homo sapiens, 120 h, Cancer, Osteosarcoma, five day incubation
Description: as §1, §2

UO31 = conditions: Homo sapiens, UO-31, 120 h, Cancer, Renal carcinoma, five day incubation
Description: as §1, §2

VH10 = conditions: 120 h, Normal, fibroblast, five day incubation
Description: as §1, §2

SMILES: Cc1cc(NC(=O)N2CCC(n3c(=O)[nH]c4c(Br)cccc43)CC2)ccc1I [Example 50, 4-(4-Bromo-2-oxo-2,3-dihydro-1H-1,3-benzodiazol-1-yl)-N-(4-iodo-3-methylphenyl)piperidine-1-carboxamide]
- pEC50 (786-0): 4.48
- pEC50 (A498): 4.46
- pEC50 (A549): 5.07
- pEC50 (ACHN): 5.55
- pEC50 (BJ Ras): 4.85
- pEC50 (BJ Tert): 4.51
- pEC50 (CCD841): 4.27
- pEC50 (CCRF-CEM): 5.10
- pEC50 (DU145): 5.51
- pEC50 (H460): 4.77
- pEC50 (HCT116): 4.54
- pEC50 (HL-60): 4.62
- pEC50 (HT-29): 4.66
- pEC50 (Jurkat): 4.82
- pEC50 (KG1a): 4.72
- pEC50 (LCL#2): 4.49
- pEC50 (M059J): 4.54
- pEC50 (M059K): 4.57
- pEC50 (MOLT4): 4.77
- pEC50 (MV4-11): 5.02
- pEC50 (PC3): 4.54
- pEC50 (PL-21): 4.74
- pEC50 (RFX393): 4.92
- pEC50 (Raji): 4.64
- pEC50 (Rec1): 4.82
- pEC50 (Reh): 4.77
- pEC50 (SaOS2): 4.70
- pEC50 (T98G): 4.77
- pEC50 (U2OS): 4.60
- pEC50 (UO31): 5.49
- pEC50 (VH10): 4.32

SMILES: O=C(Nc1ccc(Cl)c(Cl)c1)N1CCC(n2c(=O)[nH]c3c(-c4ccc(CO)nc4)cccc32)CC1 [Example 28, N-(3,4-dichlorophenyl)-4-{4-[6-(hydroxymethyl)pyridin-3-yl]-2-oxo-2,3-dihydro-1H-1,3-benzodiazol-1-yl}piperidine-1-carboxamide]
- pEC50 (786-0): 4.82
- pEC50 (A498): 4.68
- pEC50 (A549): 4.96
- pEC50 (ACHN): 5.07
- pEC50 (BJ Ras): 4.82
- pEC50 (BJ Tert): 4.62
- pEC50 (CCD841): 4.40
- pEC50 (CCRF-CEM): 4.96
- pEC50 (DU145): 4.96
- pEC50 (H460): 4.85
- pEC50 (HCT116): 4.82
- pEC50 (HL-60): 4.85
- pEC50 (HT-29): 4.64
- pEC50 (Jurkat): 4.85
- pEC50 (KG1a): 4.74
- pEC50 (LCL#2): 4.39
- pEC50 (M059J): 4.68
- pEC50 (M059K): 4.72
- pEC50 (MOLT4): 4.89
- pEC50 (MV4-11): 5.19
- pEC50 (PC3): 4.72
- pEC50 (PL-21): 5.00
- pEC50 (RFX393): 4.85
- pEC50 (Raji): 4.70
- pEC50 (Rec1): 4.89
- pEC50 (Reh): 4.82
- pEC50 (SaOS2): 4.80
- pEC50 (T98G): 4.72
- pEC50 (U2OS): 4.80
- pEC50 (UO31): 5.15
- pEC50 (VH10): 4.68

SMILES: O=C(Nc1ccc(I)cc1)N1CCC(n2c(=O)[nH]c3c(Br)cccc32)CC1 [Example 13, 4-(4-Bromo-2-oxo-2,3-dihydro-1H-1,3-benzodiazol-1-yl)-N-(4-iodophenyl)piperidine-1-carboxamide]
- pEC50 (786-0): 4.52
- pEC50 (A498): 4.54
- pEC50 (A549): 4.92
- pEC50 (ACHN): 5.64
- pEC50 (BJ Ras): 5.32
- pEC50 (BJ Tert): 4.47
- pEC50 (CCD841): 4.37
- pEC50 (CCRF-CEM): 4.82
- pEC50 (DU145): 4.89
- pEC50 (H460): 5.00
- pEC50 (HCT116): 4.74
- pEC50 (HL-60): 4.66
- pEC50 (HT-29): 4.62
- pEC50 (Jurkat): 4.89
- pEC50 (KG1a): 4.80
- pEC50 (LCL#2): 4.60
- pEC50 (M059J): 4.59
- pEC50 (M059K): 4.70
- pEC50 (MOLT4): 4.82
- pEC50 (MV4-11): 5.03
- pEC50 (PC3): 4.46
- pEC50 (PL-21): 4.82
- pEC50 (RFX393): 4.70
- pEC50 (Raji): 4.60
- pEC50 (Rec1): 4.85
- pEC50 (Reh): 4.72
- pEC50 (SaOS2): 4.68
- pEC50 (T98G): 4.85
- pEC50 (U2OS): 4.70
- pEC50 (UO31): 5.54
- pEC50 (VH10): 4.49
